Data set [1] is filed under the species Homo sapiens. The experiment in a line: Ratio of apical basolateral (A-B) and basolateral apical (B-A) determined by Caco-2 assay in human (ER=1). The format is ADME.
The target in data set [2] is T1, Substance-K receptor (Homo sapiens, UniProt P21452).
T1 sequence (P21452 whole entry): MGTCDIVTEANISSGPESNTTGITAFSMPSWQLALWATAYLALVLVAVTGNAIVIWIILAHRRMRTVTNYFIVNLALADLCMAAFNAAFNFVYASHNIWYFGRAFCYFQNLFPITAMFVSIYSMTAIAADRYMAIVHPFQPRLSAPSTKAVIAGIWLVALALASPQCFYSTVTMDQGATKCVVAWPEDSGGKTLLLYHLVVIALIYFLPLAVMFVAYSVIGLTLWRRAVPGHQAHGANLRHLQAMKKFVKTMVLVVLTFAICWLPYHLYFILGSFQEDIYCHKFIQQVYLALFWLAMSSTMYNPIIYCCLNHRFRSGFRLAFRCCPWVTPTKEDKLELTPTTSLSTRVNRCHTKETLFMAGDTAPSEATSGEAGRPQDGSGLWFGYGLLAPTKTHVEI
The experiment in a line: Inhibition of human Neurokinin 2 receptor.

The target of data set [3] is T2, Substance-K receptor (Oryctolagus cuniculus, UniProt P79218).
T2 sequence (P79218 whole entry): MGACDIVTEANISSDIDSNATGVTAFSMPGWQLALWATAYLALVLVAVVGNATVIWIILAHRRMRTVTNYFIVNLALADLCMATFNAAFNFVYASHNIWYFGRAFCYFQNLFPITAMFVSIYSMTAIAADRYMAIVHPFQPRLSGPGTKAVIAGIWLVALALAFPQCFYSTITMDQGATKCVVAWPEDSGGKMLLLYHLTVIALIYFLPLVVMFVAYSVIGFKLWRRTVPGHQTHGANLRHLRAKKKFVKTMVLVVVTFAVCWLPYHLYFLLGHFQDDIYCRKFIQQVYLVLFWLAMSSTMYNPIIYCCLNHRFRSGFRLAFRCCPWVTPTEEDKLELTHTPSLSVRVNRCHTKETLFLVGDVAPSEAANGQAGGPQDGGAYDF
The experiment in a line: pA2 for NK2 receptor of rabbit pulmonary artery. Type of data set: functional. The note with it: read-out: pA2 (converted).

Data set [4] is filed under the species Homo sapiens. The experiment in a line: Ratio of apical basolateral (A-B) and basolateral apical (B-A) determined by Caco-2 assay in human (ER=60/60). Type of data set: ADME.
Data set [5] concerns the target T1, Substance-K receptor. The experiment in a line: pKi for human Neurokinin 2 receptor.
Data set [6] in a line: Half life in human microsomal liver cells. The format is ADME. The note with it: liver microsomes.
A further data set deals with Substance-P receptor (Homo sapiens, UniProt P25103). The experiment in a line: Inhibitory concentration for Tachykinin 1 receptor of human IM9 cells. Type of data set: cell-based, IM-9.
Chain of Substance-P receptor (P25103 whole entry): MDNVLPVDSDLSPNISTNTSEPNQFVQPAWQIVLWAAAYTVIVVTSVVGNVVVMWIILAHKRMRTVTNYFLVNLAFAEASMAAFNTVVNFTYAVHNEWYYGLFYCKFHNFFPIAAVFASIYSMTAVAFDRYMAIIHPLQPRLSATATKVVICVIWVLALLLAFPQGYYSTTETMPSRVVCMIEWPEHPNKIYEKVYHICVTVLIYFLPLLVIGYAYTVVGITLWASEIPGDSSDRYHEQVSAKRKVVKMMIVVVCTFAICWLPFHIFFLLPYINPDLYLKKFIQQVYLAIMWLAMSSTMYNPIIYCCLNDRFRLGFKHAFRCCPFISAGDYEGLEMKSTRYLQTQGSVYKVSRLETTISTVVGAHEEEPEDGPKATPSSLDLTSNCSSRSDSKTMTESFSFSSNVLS
Data set [7] is described as follows: Oral absorption of 20 mg/kg tested in rat. The format is ADME, organism-based. Further details: dose 20 mg/kg. Conditions: in vivo, read-out: Absorption.
For data set [8], the species on record is Homo sapiens. The experiment in a line: Ratio of apical basolateral (A-B) and basolateral apical (B-A) determined by Caco-2 assay in human (ER=6/12). The format is ADME.
For data set [9], the species on record is Homo sapiens. The experiment in a line: Ratio of apical basolateral (A-B) and basolateral apical (B-A) determined by Caco-2 assay in human (ER<2). Type of data set: ADME.
For data set [10], the species on record is Homo sapiens. The experiment in a line: Ratio of apical basolateral (A-B) and basolateral apical (B-A) determined by Caco-2 assay in human (ER=12/16). Type of data set: ADME.
For data set [11], the species on record is Homo sapiens. The experiment in a line: Ratio of apical basolateral (A-B) and basolateral apical (B-A) determined by Caco-2 assay in human (ER=33/35). Type of data set: ADME.
Data set [12] is described as follows: Distribution coefficient (Log D) value at pH 7.4. The note with it: octanol/water. Type of data set: physicochemical.
The species entered for data set [13] is Homo sapiens. The experiment in a line: Ratio of apical basolateral (A-B) and basolateral apical (B-A) determined by Caco-2 assay in human (ratio=12/18). Type of data set: ADME.
A short description of data set [14]: In vivo clearance of […] mg/kg of compound tested in human. Type of data set: ADME, organism-based. The note with it: 10 mg/kg.
Data set [15] is described as follows: Oral absorption of 10 mg/kg tested in rat. The format is ADME, organism-based. Further details: dose 10 mg/kg. The note with it: in vivo, read-out: Absorption.
The target in data set [16] is T1, Substance-K receptor. The experiment in a line: pA2 for NK2 receptor of Human bladder. The format is functional. The note with it: read-out: pA2 (converted).
Data set [17] is filed under the species Homo sapiens. The experiment in a line: Ratio of apical basolateral (A-B) and basolateral apical (B-A) determined by Caco-2 assay in human; (ratio=1/18). The format is ADME.
Data set [18] is filed under the species Homo sapiens. The experiment in a line: Ratio of apical basolateral (A-B) and basolateral apical (B-A) determined by Caco-2 assay in human (ratio=2/3). Type of data set: ADME.
The species entered for data set [19] is Homo sapiens. The experiment in a line: Ratio of apical basolateral (A-B) and basolateral apical (B-A) determined by Caco-2 assay in human. Type of data set: ADME.
Data set [20] is filed under the species Homo sapiens. The experiment in a line: Ratio of apical basolateral (A-B) and basolateral apical (B-A) determined by Caco-2 assay in human (ER=2/12). The format is ADME.

The IC50 is the midpoint of a concentration-inhibition curve. Lower therefore signals greater potency. Usually pKi stands for −log10 of the Ki, conventionally taken in molar units. A lower pKi goes with a large Ki. The term half-life denotes the time in which the quantity being followed falls by half. What is called logD is lipophilicity at a set pH, counting ionised and neutral species. A lower logD goes with lower lipophilicity. Broadly, the clearance is a measure of how efficiently the substance is removed, as volume per time.

`CCOC1CCN(C2CN(CC[C@]3(c4ccc(Cl)c(Cl)c4)CCC(=O)N(CC4CC4)C3)C2)CC1`: in the data set filed under Homo sapiens [1], the Caco-2 permeability is listed as 34 % hr-1. The molecule also showed an IC50 against Substance-K receptor [2] of 15.8 nM. Besides, on Substance-K receptor [3], the Kb was 6.31 nM.

In the case of `O=C1CC[C@](CCN2CC(N3CCC(F)CC3)C2)(c2ccc(Cl)c(Cl)c2)CN1C1(C2CC2)CCCC1`, the Caco-2 permeability result in the data set filed under Homo sapiens [4] is “Permeable”. Besides, at Substance-K receptor [5], the pKi came to 10. Besides, in [6], the half-life was 0.0333 h.

For `O=C1CC[C@](CCN2CC(N3CCC(F)CC3)C2)(c2ccc(Cl)c(Cl)c2)CN1CC1CCC(F)(F)CC1`, the Caco-2 permeability in the data set listed under Homo sapiens [1] was more than 35 % hr-1. The IC50 on Substance-K receptor [2] was 0.398 nM; on Substance-P receptor it was more than 10000 nM. Moreover, the Fa in data set [7] is more than 80%. The half-life in data set [6] was more than 2 h.

Take `CN(C)S(=O)(=O)N1CCN(C2CN(CC[C@]3(c4ccc(Cl)c(Cl)c4)CCC(=O)N(CC4CC4)C3)C2)CC1`: inhibition against Substance-K receptor [2] was half-maximal at 15.8 nM (IC50). The Kb at Substance-K receptor [3] is 10 nM.

On Substance-K receptor [2], `O=C1CC[C@](CCN2CC(N3CCC(F)CC3)C2)(c2ccc(Cl)c(Cl)c2)CN1CCC1CC1` gave an IC50 of 2.51 nM. Moreover, the Kb on Substance-K receptor [3] was 1.58 nM.

The molecule `CS(=O)(=O)N1CCN(C2CN(CC[C@]3(c4ccc(Cl)c(Cl)c4)CCC(=O)N(CC4CCC(F)(F)CC4)C3)C2)CC1` had an IC50 on Substance-K receptor [2] of 1.26 nM. Also, the Caco-2 permeability result in the data set listed under Homo sapiens [8] is reported as “Permeable”. The Kb on Substance-K receptor [3] is 1 nM.

As to `CS(=O)(=O)N1CCN(C2CN(CC[C@]3(c4ccc(Cl)c(Cl)c4)CCC(=O)N(CC4CC4)C3)C2)CC1`, on Substance-K receptor [2], the midpoint of inhibition, the IC50, lay at 7.94 nM. For the same molecule, the Caco-2 permeability in the data set listed under Homo sapiens [9] stood at 10 % hr-1. In data set [6], this molecule registered a half-life of less than 0.167 h. In addition, the Kb on Substance-K receptor [3] is 3.16 nM.

In the case of `O=C1CC[C@](CCN2CC(N3CCOCC3)C2)(c2ccc(Cl)c(Cl)c2)CN1CC1CCCCC1`, the Caco-2 permeability result in the data set listed under Homo sapiens [10] is given as “Permeable”. Moreover, the IC50 at Substance-K receptor [2] is 0.794 nM. Besides, the half-life in data set [6] came to 0.233 h. Moreover, on Substance-K receptor [3], the Kb is 1 nM.

For the molecule `O=C1CC[C@](CCN2CC(N3CCOCC3)C2)(c2ccc(Cl)c(Cl)c2)CN1CC1CCC(F)(F)CC1`, on Substance-K receptor [2], the IC50 is 7.94 nM. In addition, in the data set listed under Homo sapiens [11], the Caco-2 permeability entry is “Permeable”. This molecule came in with a half-life in [6] of 1.33 h. The Kb on Substance-K receptor [3] is 1.26 nM.

Turning to `O=C1CC[C@](CCN2CC(N3CCC(F)CC3)C2)(c2ccc(Cl)c(Cl)c2)CN1CC1CC1`, the Caco-2 permeability result in the data set listed under Homo sapiens [4] is on record as “Permeable”. The molecule further had an IC50 against Substance-K receptor [2] of 10 nM. In [6], this molecule yielded a half-life of 1.42 h. In addition, the Kb on Substance-K receptor [3] is 2.51 nM.

At Substance-K receptor [5], `O=C1CC[C@](CCN2CC(N3CCOCC3)C2)(c2ccc(Cl)c(Cl)c2)CN1C1(C2CC2)CCCC1` showed a pKi of 9.5. The same molecule gave a half-life in data set [6] of less than 0.0167 h. Also, the Kb on Substance-K receptor [3] is 0.251 nM.

`O=C1CC[C@](CCN2CC(N3CCOCC3)C2)(c2ccc(Cl)c(Cl)c2)CN1CC1CC1` gave an IC50 against Substance-K receptor [2] of 79.4 nM. The half-life in data set [6] was found to be 2 h. Besides, the logD in data set [12] stood at 2.3. For the same molecule, in the data set listed under Homo sapiens [13], the Caco-2 permeability result is given as “Permeable”. For the same molecule, the Kb at Substance-K receptor [3] is 2 nM.

In data set [14], `NS(=O)(=O)N1CCN(C2CN(CC[C@]3(c4ccc(Cl)c(Cl)c4)CCC(=O)N(CC4CC4)C3)C2)CC1` returned a clearance of less than 3 mL/min/kg. This molecule had an IC50 at Substance-K receptor [2] of 3.98 nM. In [15], the Fa was less than 20%. For the same molecule, the figures for the Kb at Substance-K receptor [16] and on Substance-K receptor [3] were 1.58 nM and 1.26 nM, respectively. The same molecule gave a half-life in [6] of more than 2 h. In data set [12], this molecule returned a logD of 1.7. Also, in the data set listed under Homo sapiens [17], the Caco-2 permeability result is recorded as “Permeable”.

As for `NC1CCN(C2CN(CC[C@]3(c4ccc(Cl)c(Cl)c4)CCC(=O)N(CC4CC4)C3)C2)CC1`, the midpoint of inhibition on Substance-K receptor [2], the IC50, lay at 6.31 nM. The Caco-2 permeability result in the data set listed under Homo sapiens [18] is listed as “Permeable”. Further, the Kb at Substance-K receptor [3] is 2 nM.

`O=C1CCN(C2CN(CC[C@]3(c4ccc(Cl)c(Cl)c4)CCC(=O)N(CC4CCC(F)(F)CC4)C3)C2)CC1` gave an IC50 against Substance-K receptor [2] of 3.16 nM. For the same molecule, the Kb on Substance-K receptor [3] is 0.2 nM.

In turn, `NC1CCN(C2CN(CC[C@]3(c4ccc(Cl)c(Cl)c4)CCC(=O)N(CC4CCC(F)(F)CC4)C3)C2)CC1` had an IC50 at Substance-K receptor [2] of 1 nM. Besides, in the data set filed under Homo sapiens [19], the Caco-2 permeability was less than 1 % hr-1. The molecule further gave a logD in data set [12] of 0.1. For the same molecule, the Kb on Substance-K receptor [3] was 0.2 nM.

With `O=C1CC[C@](CCN2CC(N3CCC(O)CC3)C2)(c2ccc(Cl)c(Cl)c2)CN1CC1CCC(F)(F)CC1`, half-maximal inhibition on Substance-K receptor [2] (IC50) was put at 1.26 nM. In data set [12], this molecule showed a logD of 2.2. The Caco-2 permeability entry in the data set filed under Homo sapiens [20] is given as “Permeable”. The Kb at Substance-K receptor [3] was 0.0794 nM.

Source of the values: ChEMBL document CHEMBL1140353, “Structure-activity relationships of 1-alkyl-5-(3,4-dichlorophenyl)-5-{2-[3-(substituted)-1-azetidinyl]-ethyl}-2-piperidones. Part 2: Improving oral absorption” (Bioorg Med Chem Lett, 2005).
